In ChEMBL document CHEMBL1141442, “Structure elucidation of a dihydropyranone from Tapinanthus dodoneifolius” (J Nat Prod, 2007):
pIC50: −log10 of the molar value.

Species on record: Rattus norvegicus
Experiment: Vasorelaxant effect on norepinephrine induced-contraction in Wistar rat aortic rings
Assay type: functional, organism-based
Conditions: Aorta

pIC50: 4.09
Structure (SMILES): O=C1C=CC[C@H](C[C@@H](O)CCc2ccc(O)cc2)O1
